Active and inactive are the calls of the source. No cut-off for these calls is given here.
Key:
[1] = molecular target: T1, Prostaglandin G/H synthase 1 (Homo sapiens, UniProt P23219); experiment: Inhibition of COX1 at 100 uM
Mus musculus [2] = experiment: Acute toxicity in ICR mouse upto 300 mg/kg, po upto 14 days; type: organism-based; design: dose 300 mg/kg, route oral; settings: in vivo, 336 h
Rattus norvegicus [3] = experiment: Analgesic activity in Sprague-Dawley rat assessed as reduction in formalin-induced pain at 30 mg/kg, po; type: functional, organism-based; design: dose 30 mg/kg
[4] = molecular target: T1, Prostaglandin G/H synthase 1; experiment: Inhibition of COX1
Rattus norvegicus [5] = experiment: Induction of gastric ulcer formation in Sprague-Dawley rat at 30 mg/kg, po administered daily for 1 week; type: organism-based, Stomach; design: dose 30 mg/kg, route oral; settings: in vivo, 168 h
Mus musculus [6] = experiment: Analgesic activity in ICR mouse assessed as reduction in number of acetic acid-induced writhing at 10 mg/kg, po after 10 mins; type: functional, organism-based; design: dose 10 mg/kg
[7] = molecular target: T2, Prostaglandin G/H synthase 2 (Homo sapiens, UniProt P35354); experiment: Inhibition of COX2
T2 sequence (P35354 whole entry): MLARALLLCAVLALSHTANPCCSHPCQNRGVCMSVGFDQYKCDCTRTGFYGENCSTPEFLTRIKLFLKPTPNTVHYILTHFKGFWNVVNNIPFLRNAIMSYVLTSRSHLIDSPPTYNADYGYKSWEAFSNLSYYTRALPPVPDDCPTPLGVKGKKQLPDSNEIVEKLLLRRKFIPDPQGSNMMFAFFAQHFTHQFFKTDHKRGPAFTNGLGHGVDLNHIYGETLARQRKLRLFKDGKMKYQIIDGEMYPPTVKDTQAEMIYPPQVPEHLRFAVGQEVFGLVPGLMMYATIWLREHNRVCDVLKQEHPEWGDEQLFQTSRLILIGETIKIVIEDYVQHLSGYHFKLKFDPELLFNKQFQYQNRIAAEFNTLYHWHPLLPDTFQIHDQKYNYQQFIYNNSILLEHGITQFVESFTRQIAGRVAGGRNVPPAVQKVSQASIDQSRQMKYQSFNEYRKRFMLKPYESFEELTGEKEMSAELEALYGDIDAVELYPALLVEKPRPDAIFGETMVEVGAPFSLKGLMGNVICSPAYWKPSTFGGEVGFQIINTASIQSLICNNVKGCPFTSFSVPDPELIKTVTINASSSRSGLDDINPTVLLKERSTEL

[8] = Cmax in Sprague-Dawley rat at 30 mg/kg, po; type: ADME, organism-based; design: dose 30 mg/kg, route oral; settings: in vivo
Mus musculus [9] = experiment: Analgesic activity in ICR mouse assessed as reduction in number of acetic acid-induced writhing at 30 mg/kg, po after 10 mins; type: functional, organism-based; design: dose 30 mg/kg
Rattus norvegicus [10] = experiment: Induction of gastric ulcer formation in Sprague-Dawley rat at 30 mg/kg, po after 5 hrs; type: organism-based, Stomach; design: dose 30 mg/kg, route oral; settings: in vivo
Rattus norvegicus [11] = experiment: Induction of gastric ulcer formation in Sprague-Dawley rat at 10 mg/kg, po after 5 hrs; type: organism-based, Stomach; design: dose 10 mg/kg, route oral; settings: in vivo

T1 sequence (P23219 whole entry): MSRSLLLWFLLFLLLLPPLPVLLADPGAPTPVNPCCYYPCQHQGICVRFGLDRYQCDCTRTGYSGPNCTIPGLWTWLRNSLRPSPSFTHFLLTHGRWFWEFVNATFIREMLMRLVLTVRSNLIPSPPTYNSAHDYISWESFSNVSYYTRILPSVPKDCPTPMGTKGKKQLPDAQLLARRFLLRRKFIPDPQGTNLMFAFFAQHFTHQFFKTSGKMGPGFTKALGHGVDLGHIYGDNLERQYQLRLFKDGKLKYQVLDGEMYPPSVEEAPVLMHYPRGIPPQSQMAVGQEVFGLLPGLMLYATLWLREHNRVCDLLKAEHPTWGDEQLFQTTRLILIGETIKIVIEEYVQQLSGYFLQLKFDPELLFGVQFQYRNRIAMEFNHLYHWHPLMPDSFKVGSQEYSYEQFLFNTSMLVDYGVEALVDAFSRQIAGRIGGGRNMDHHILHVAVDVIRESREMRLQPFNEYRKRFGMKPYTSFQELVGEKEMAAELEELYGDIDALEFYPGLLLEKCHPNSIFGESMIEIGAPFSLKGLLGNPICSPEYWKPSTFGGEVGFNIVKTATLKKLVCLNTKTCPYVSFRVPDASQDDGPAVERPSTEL

| Structure (SMILES) | inhibition [1] | IC50 [4] | IC50 [7] | other results |
| --- | --- | --- | --- | --- |
| Nc1ccc(NC(=O)c2ccc(Cl)cc2)cc1 | 49% |  |  |  |
| Nc1ccc(NC(=O)c2ccc(C(F)(F)F)cc2)nc1 |  | 0.8 µM | 210 µM | Activity (Mus musculus [2]): Non-toxic; Activity (Rattus norvegicus [3]): Active; Activity (Rattus norvegicus [5]): Not Active; Activity (Mus musculus [6]): Active; Cmax [8]: 12 µM; Activity (Mus musculus [9]): Active |
| CCN(C(=O)c1ccccc1N)c1ccccc1 | 5% |  |  |  |
| Cc1ccc(NC(=O)c2ccc(Cl)cc2)cc1 | 23% |  |  |  |
| Nc1cccc(C(=O)Nc2ccccc2C(F)(F)F)c1 |  | > 100 µM | > 100 µM |  |
| CC(=O)Oc1ccccc1C(=O)O [ASPIRIN] |  |  |  | Activity (Rattus norvegicus [10]): Active |
| Nc1ccc(C(=O)Nc2ccc(Cl)cc2)cc1 | 53% |  |  |  |
| COc1ccc2c(c1)c(CC(=O)O)c(C)n2C(=O)c1ccc(Cl)cc1 [INDOMETHACIN] |  |  |  | Activity (Rattus norvegicus [11]): Active; Activity (Mus musculus [6]): Active |
| Nc1ccnc(NC(=O)c2ccc(C(F)(F)F)cc2)c1 |  | > 100 µM | > 100 µM |  |
| Nc1cccc(NC(=O)c2ccc(C(F)(F)F)cc2)c1 | 76% | 14 µM | > 100 µM |  |
| Cc1ccccc1NC(=O)c1ccccc1N | 53% |  |  |  |
| Cc1cccc(NC(=O)c2ccccc2N)c1 | 67% |  |  |  |
| O=C(Nc1ccc(C(F)(F)F)cc1)c1ccc([N+](=O)[O-])cc1 | 0% |  |  |  |
| Nc1ccccc1NC(=O)c1ccccc1C(F)(F)F |  | > 100 µM | > 100 µM |  |
| Nc1cccc(NC(=O)c2ccccc2C(F)(F)F)c1 |  | 94 µM | > 100 µM |  |
| Nc1ccccc1NC(=O)c1ccc(C(F)(F)F)cc1 | 53% | 88 µM | > 100 µM |  |
| Nc1ccccc1C(=O)Nc1ccc(Cl)cc1 | 52% |  |  |  |
| Nc1ccc(C(=O)Nc2cccc(C(F)(F)F)c2)cc1 |  | > 100 µM | > 100 µM |  |
| Nc1ccc(C(=O)Nc2ccc(C(F)(F)F)cc2)cc1 | 71% | 30 µM | > 100 µM |  |
| Nc1ccccc1C(=O)Nc1cccc(C(F)(F)F)c1 | 90% | 10 µM | > 100 µM |  |
| Nc1cccc(C(=O)Nc2ccc(C(F)(F)F)cc2)c1 | 70% | 19 µM | > 100 µM |  |
| COc1ccc(-c2nc(C(=O)N3CCN(C)CC3)sc2-c2ccc(OC)cc2)cc1 [FR-122047] |  | 0.028 µM | 65 µM |  |
| Nc1cccc(C(=O)Nc2cccc(C(F)(F)F)c2)c1 |  | > 100 µM | > 100 µM |  |
| O=C(Nc1ccc(C(F)(F)F)cc1)c1ccccc1[N+](=O)[O-] | 31% |  |  |  |
| CCN(C(=O)c1ccccc1N)c1ccc(Cl)cc1 | 23% |  |  |  |
| Nc1ccc(NC(=O)c2cccc(C(F)(F)F)c2)nc1 |  | 12 µM | > 100 µM |  |
| Nc1cccnc1NC(=O)c1cccc(C(F)(F)F)c1 |  | > 100 µM | > 100 µM |  |

Now from value to compound, other results behind:

| inhibition [1] | IC50 [4] | IC50 [7] | Structure (SMILES) | other results |
| --- | --- | --- | --- | --- |
|  | 62 µM | > 100 µM | Nc1ccc(NC(=O)c2cccc(C(F)(F)F)c2)cc1 |  |
|  | > 100 µM | > 100 µM | Nc1ccnc(NC(=O)c2cccc(C(F)(F)F)c2)c1 |  |
| 40% |  |  | Nc1ccc(C(=O)Nc2ccccc2)cc1 |  |
|  | 72 µM | > 100 µM | Nc1ccccc1NC(=O)c1cccc(C(F)(F)F)c1 |  |
|  | > 100 µM | > 100 µM | Nc1ccc(C(=O)Nc2ccccc2C(F)(F)F)cc1 |  |
| 13% |  |  | O=C(Nc1ccc(C(F)(F)F)cc1)c1cccc([N+](=O)[O-])c1 |  |
| 57% |  |  | Cc1ccc(NC(=O)c2ccccc2N)cc1 |  |
| 63% | 29 µM | > 100 µM | Nc1ccc(NC(=O)c2ccc(C(F)(F)F)cc2)cc1 |  |
|  | 10 µM | > 100 µM | Nc1ccc(C(=O)Nc2ccc(C(F)(F)F)cn2)cc1 |  |
| 54% |  |  | Nc1ccc(NC(=O)c2ccccc2)cc1 |  |
|  | > 100 µM | > 100 µM | Nc1ccc(NC(=O)c2ccccc2C(F)(F)F)cc1 |  |
|  | > 100 µM | > 100 µM | Nc1cccnc1NC(=O)c1ccc(C(F)(F)F)cc1 |  |
|  | > 100 µM | > 100 µM | Nc1ccc(C(=O)Nc2ccc(C(F)(F)F)cc2)nc1 |  |
| 56% |  |  | Cc1ccc(NC(=O)c2ccc(N)cc2)cc1 |  |
| 64% |  |  | Nc1ccccc1C(=O)Nc1ccccc1 |  |
| 53% |  |  | Cc1ccc(C(=O)Nc2ccc(N)cc2)cc1 |  |
|  | 7.2 µM | > 100 µM | Nc1cccc(NC(=O)c2cccc(C(F)(F)F)c2)c1 |  |
| 68% | 16 µM | > 100 µM | Nc1ccccc1C(=O)Nc1ccc(C(F)(F)F)cc1 |  |
| 35% |  |  | COc1ccc(NC(=O)c2ccc(Cl)cc2)cc1 |  |
| 32% | > 100 µM | > 100 µM | Nc1ccccc1C(=O)Nc1ccccc1C(F)(F)F |  |

From ChEMBL document CHEMBL1144769 (J Med Chem, 2008)
